{
  "source": "patent US20240286179A1",
  "about": "“METHODS AND COMPOSITIONS FOR WASTE MANAGEMENT SYSTEMS” (priority 2023, published 2024)",
  "key": {"methanogenesis [1]": {"test_system": "methanogenesis", "procedure": "An anoxic composting reactor was designed and constructed that comprised of a 2-liter plastic soda bottle attached to a 200 ml foil gas bag for quantitative gas analysis using gas chromatography. Composting experiments in anoxic composting reactor were conducted with 1 cup of organic food waste from kitchen waste with coffee grounds, 1 cup of leaves or grass clippings, 1 cup of shredded paper, and 4 cups of surface creek soil with 16 g of NaClO2 (9.6 g/kg soil concentration) or 4 cups of surface creek soil without NaClO2 or 4 cups of landfill cover soil with 16 g of NaClO2, or 4 cups or landfill cover soil without NaClO2.\nVolumes of gas in the foil bags were estimated over a 3-week period. The gas samples were analyzed for fixed gases (hydrogen, oxygen, nitrogen, carbon monoxide, methane, and carbon dioxide) according to modified EPA Method 3C (single injection) using a gas chromatograph equipped with a thermal conductivity detector by ALS Environmental (Simi Valley, CA)."}, "[2]": {"test_system": "chlorite dismutase (Cld) enzymes", "procedure": "Using water displacement method, the oxygen production and yield were calculated from 4 gm of sodium chlorite in a 300 mL wet creek bed soil sample (526 gm) placed in 500 mL Erlenmeyer flask with rubber stopper connected with rubber tubing to an inverted 1 L graduated beaker full of water and placed in a rectangular plastic tub with water."}, "[3]": {"test_system": "chlorite dismutase (Cld) enzymes", "settings": "16 g NaClO2 (30 g/kg)", "procedure": "A qualitative reactor for detection of gas production was designed and constructed using: 300 mL plastic water bottle, 7-inch balloon and 3×⅛ in rubber band. The surface creek soil, deep creek soil, and landfill soil cover samples were placed in qualitative reactor with 16 g NaClO2 (30 g/kg soil concentration) and without any NaClO2 to screen for the presence of Cld enzymes by observing the inflation of balloon indicating biogas production."}, "methanogenesis [4]": {"test_system": "methanogenesis", "procedure": "A composting experiment was conducted in a 2-liter plastic soda bottle with 1 cup of organic food waste from kitchen waste with coffee grounds, 1 cup of leaves or grass clippings, 1 cup of shredded paper, and 4 cups of wet creek bed soil with 16 g of sodium chlorite (9.6 g/kg soil concentration) or 4 cups of wet creek bed soil without sodium chlorite. Gas produced in this experiment was collected using water displacement method. The %/Vol of methane was measured with a portable multi 4 gas detector with air gas sampling pump.\nThe LEL of CH4 is 5% of gas volume.", "remark": "listed apart in the source"}, "[5]": {"test_system": "chlorite dismutase (Cld) enzymes", "settings": "for balloon inflation: creek water", "procedure": "A qualitative sampling device was created using: 300 mL plastic water bottle, 7-inch balloon and 3×⅛ in rubber band. Freshwater, wet creek bed soil (alluvial soil), and dry creek bank soil samples were collected from a stream habitat (Denton Creek in Coppell, Texas). Samples were placed in a sampling device with or without sodium chlorite (0 g, 16 g, or 32 g) to screen for the presence of Cld enzymes by observing inflation of balloon."}, "[6]": {"settings": "wet creek bed soil with 16 g NaClO2 (9.6 g/kg)"}},
  "note": "Where two headings read alike, the source gives them in different places.",
  "data": [
    {"substance": "sodium chlorite [NaClO2]", "values": [
      {"measurement": "millimoles of methane generated, creek reactors without NaClO2 compared with creek reactors with NaClO2", "setting": "methanogenesis [1]; P-value=0.037, one-tailed paired t test", "value": "significantly higher"},
      {"measurement": "volume of biogas produced", "setting": "methanogenesis [1]; creek soil reactors with NaClO2, spread +/−81, P=0.009 vs without NaClO2", "value": 328, "unit": "mL"},
      {"measurement": "CO2 levels in gas", "setting": "methanogenesis [1]; landfill soil cover samples with or without NaClO2", "value": "lower levels of CO2"},
      {"measurement": "CO2 levels in gas", "setting": "methanogenesis [1]; surface creek soil, 16 g NaClO2 (9.6 g/kg)", "value": "increasing levels of CO2"},
      {"measurement": "onset of gas production", "setting": "methanogenesis [1]; surface creek soil, 16 g NaClO2 (9.6 g/kg), over a 60-hour period", "value": "immediate gas production"},
      {"measurement": "measurable gas production", "setting": "[2]; 4 g NaClO2 in 526 g creek bed soil (7.6 g/kg), over a 65-hour period before plateauing", "value": 145, "unit": "mL"},
      {"measurement": "measurable volume as % of theoretical oxygen yield", "setting": "[2]; reduction of 4 grams NaClO2, calculated using the Ideal Gas Law", "value": "around 14%"},
      {"measurement": "time to rapid balloon inflation", "setting": "[3]; deep creek soil", "value": "≤ 6", "unit": "h"},
      {"measurement": "balloon inflation", "setting": "[3]; landfill cover soil", "value": "did not show any balloon inflation"},
      {"measurement": "time to rapid balloon inflation", "setting": "[3]; surface creek soil", "value": "≤ 6", "unit": "h"},
      {"measurement": "Methane % Day 12", "setting": "methanogenesis [4]; Volume %, 16 g NaClO2 (9.6 g/kg), Day 12", "value": 0.75, "unit": "%"},
      {"measurement": "Methane % Day 23", "setting": "methanogenesis [4]; Volume %, 16 g NaClO2 (9.6 g/kg), Day 23", "value": 0, "unit": "%"},
      {"measurement": "Methane % Day 34", "setting": "methanogenesis [4]; Volume %, 16 g NaClO2 (9.6 g/kg), Day 34", "value": 0, "unit": "%"},
      {"measurement": "time at which gas production plateaued", "setting": "methanogenesis [4]; [6]", "value": "about 134 hours"},
      {"measurement": "time at which gas production was noted after set-up", "setting": "methanogenesis [4]; [6]", "value": "one"},
      {"measurement": "time within which most of the measurable gas production occurred", "setting": "methanogenesis [4]; [6]", "value": "≤ 46", "unit": "h"},
      {"measurement": "time to rapid balloon inflation", "setting": "[5]; alluvial creek bed soil, 16 g (0.053 g/ml) NaClO2", "value": "≤ 6", "unit": "h"},
      {"measurement": "balloon inflation", "setting": "[5]; 16 g (0.053 g/ml) NaClO2, after 2 days", "value": "no balloon inflation"},
      {"measurement": "balloon inflation", "setting": "[5]; 32 g (0.11 g/ml) NaClO2, after 2 days", "value": "no balloon inflation"}
    ]}
  ]
}
